Source: patent publication US9688659B2, “Deuterated compounds for treating hematologic malignancies, and compositions and methods thereof” (NeuForm Pharmaceuticals, Inc., priority 2015, dated 2017)

What was measured:
[1] = Drug metabolism study with rat and human liver microsomes fortified with NADPH; assay type: in vitro ADME; settings: 10 μM, 1 mg/mL protein, 37° C., 60 minutes
Protocol: This study was carried out to evaluate drug metabolism of the test compounds by rat and human microsomes. Test compounds were incubated with liver microsomes of rat (BioreclamationIVT, Lot# NNK) and human (BioreclamationIVT, Lot# HPG) at 37° C. for 60 minutes. The substrate compound concentration was at 10 μM and final protein concentration in incubation mixtures was 1 mg/mL. Reaction was stopped by adding three fold acetonitrile to the reaction mixture. The samples were vortexed and centrifuged to precipitate the proteins. The supernatants were transferred to clean tubes for drying under a stream of N2. The dried residues were reconstituted with 30% acetonitrile. Aliquots were injected into an LC/UV/MS system for metabolite ID and profiling. The LC/UV/MS system was Agilent 1100 HPLC (pumps, autosampler and PDA) interfaced to LTQ ion trap mass spectrometer (ThermoFinnigan). HPLC column was Luna C18(2) column, 250×2.0 mm, 5 The HPLC mobile phase gradient system were water and acetonitrile with 0.05% trifluoroacetic acid in both solvents.
The experimental data indicated oxidation (hydroxylation) and de-alkylation were two of major metabolism paths for enasidenib and D8-enasidenib. For oxidation on aromatic ring, the molecular weights of hydroxylation products were the original ones plus an oxygen (+16). The C—H bond of enasidenib is replaced by C—OH. For oxidation on side chains, the molecular weights of hydroxylation products are different for enasidenib vs. D8-enasidenib. For enasidenib, the C—H bond is also replaced by C—OH and the difference in molecular weights is 16. However, since D8-enasidenib loses a deuterium due to hydroxylation (C-D is replaced by C—OH), the difference of its molecular weight to the original is 15 (that is +O+H−D=15). (FIG. 2) Thus, the hydroxylation products for aromatic ring and side chain for enasidenib and D8-enasidenib can be identified.

[2] = biological target: T1, IDH2 R140Q (Homo sapiens, UniProt P48735, R140Q); assay: IC50 measurement against IDH2 R140Q (diaphorase/resazurin detection); assay type: biochemical
T1 sequence (P48735 40-452 R140Q): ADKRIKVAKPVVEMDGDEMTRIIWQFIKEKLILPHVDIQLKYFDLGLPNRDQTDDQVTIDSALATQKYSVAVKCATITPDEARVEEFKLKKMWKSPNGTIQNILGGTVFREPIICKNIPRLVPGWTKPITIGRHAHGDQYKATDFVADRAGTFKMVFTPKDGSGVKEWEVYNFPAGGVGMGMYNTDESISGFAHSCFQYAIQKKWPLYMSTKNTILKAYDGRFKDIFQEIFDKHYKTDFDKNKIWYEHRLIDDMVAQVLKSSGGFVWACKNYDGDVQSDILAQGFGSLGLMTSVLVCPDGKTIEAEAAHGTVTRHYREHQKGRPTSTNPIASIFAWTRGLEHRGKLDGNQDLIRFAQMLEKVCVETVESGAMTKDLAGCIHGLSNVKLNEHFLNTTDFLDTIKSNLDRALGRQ
Protocol: Compounds were tested in 10-dose IC50 mode with 3-fold serial dilution at a starting concentration of 10 μM. Substrate and co-factor were 8000 μM α-Ketoglutarate and 15 μM NADPH (reduced form of nicotinamide adenine dinucleotide phosphate). The reaction was carried out by mixing compound solutions with enzyme (IDH2 R140Q) and pre-incubated for 60 minutes. Then a four-fold substrate mixture was delivered to initiate the reaction. The solutions were incubated for 45 minutes at room temperature. Detection was performed using diaphorase and resazurin and measured in Envision (Perkin-Elmer). (Ex/Em=535/590 nm).

[3] = In vivo pharmacokinetic study on cynomolgus monkeys, intravenous; settings: for AUC Differentiation (%): D8-enasidenib vs enasidenib; for AUC: cynomolgus monkey, plasma, iv, 1 mg/kg
Protocol: Test compounds were dissolved to yield a final concentration at 0.2 mg/mL. The study conducted formulation analysis by HPLC. The four animals assigned to the study had body weights within ±20% of the mean body weight. The study was conducted in a cross-over matter with four phases to minimize individual difference. The dose level was 1 mg/Kg and the drug was administrated through intravenous (IV) route.
Blood samples (approximately 1.2 mL/sample) were collected from the […] vein at appropriate time points. Samples were placed in tubes containing sodium heparin and stored on ice until centrifuged. Blood samples were collected pre-dose and post-dose at post-dose 2 minutes, 5 minutes, 15 minutes, 30 minutes, 1 hour, 2 hours, 3 hours, 4 hours, 6 hours, 8 hours and 24 hours. The blood samples were centrifuged at approximately 8,000 rpm for 6 minutes at 2-8° C. Plasma samples were then collected and stored frozen at approximately −80° C. until analysis. The bioanalytical work was performed using a LC-MS/MS system.

[4] = Average of four animals, 1 mg/Kg IV, monkey
[5] = animal MK-101, 1 mg/Kg IV, monkey
[6] = animal MK-201, 1 mg/Kg IV, monkey
[7] = animal MK-301, 1 mg/Kg IV, monkey
[8] = animal MK-401, 1 mg/Kg IV, monkey

Q: With `[2H]C([2H])([2H])C(O)(C([2H])([2H])[2H])C([2H])([2H])Nc1nc(Nc2ccnc(C(F)(F)F)c2)nc(-c2cccc(C(F)(F)F)n2)n1` [D8-Enasidenib] as the molecule, how does the “formation of hydroxylation product on aromatic ring compared to enasidenib” value ([1]; FIG. 3) read?
A: similar

Q: What about the “hydroxylation on the side chain compared to enasidenib” value ([1]; FIG. 3) of the same molecule?
A: greatly reduced

Q: What about the “formation of de-alkylation product compared to enasidenib” value ([1]; FIG. 4) of the same molecule?
A: significantly slowed down

Q: And the IC50 [2]?
A: 360 nM

Q: And the “IC50 difference from that of enasidenib” value [2]?
A: ≤ 10%

Q: And the “AUC Differentiation (%)” value ([3]; Average)?
A: 62.0%

Q: And the “AUC Differentiation (%)” value ([3]; animal MK-101)?
A: 15.3%

Q: What about the “AUC Differentiation (%)” value ([3]; animal MK-201) of the same molecule?
A: 69.1%

Q: What about the “AUC Differentiation (%)” value ([3]; animal MK-301) of the same molecule?
A: 140%

Q: What about the “AUC Differentiation (%)” value ([3]; animal MK-401) of the same molecule?
A: 23.5%

Q: What about the AUC [3, 4] of the same molecule?
A: 7900 ng·h/mL

Q: And the AUC [3, 5]?
A: 8970 ng·h/mL

Q: What about the AUC [3, 6] of the same molecule?
A: 5810 ng·h/mL

Q: What about the AUC [3, 7] of the same molecule?
A: 10300 ng·h/mL

Q: And the AUC [3, 8]?
A: 6530 ng·h/mL

Q: And the “DMPK property over enasidenib (drug exposure AUC and half-life)” value ([3]; monkey, 1 mg/Kg IV)?
A: superior DMPK property over enasidenib

Q: With `CC(C)(O)CNc1nc(Nc2ccnc(C(F)(F)F)c2)nc(-c2cccc(C(F)(F)F)n2)n1` [Enasidenib, enasidenib, reference compound] as the molecule, how does the IC50 [2] read?
A: 362 nM

Q: What about the AUC [3, 4] of the same molecule?
A: 5200 ng·h/mL

Q: And the AUC [3, 5]?
A: 7780 ng·h/mL

Q: And the AUC [3, 6]?
A: 3440 ng·h/mL

Q: What about the AUC [3, 7] of the same molecule?
A: 4290 ng·h/mL

Q: What about the AUC [3, 8] of the same molecule?
A: 5290 ng·h/mL
